From patent US20150224058A1, “FORMULATIONS OF FLIBANSERIN” (Sprout Pharmaceuticals Inc., priority 2008, published 2015)
≈ marks a conversion by molar mass, not a printed value.

Assay: Solubility of flibanserin in aqueous media
Type: physicochemical
Conditions: aqueous buffer; in phosphate buffer at pH 5.0
Excerpt: This marginal solubility at higher pH-values of flibanserin makes it difficult to develop extended release dosage forms or in some case even immediate release dosage forms for the following reasons. There is a natural pH gradient from the acidity of the stomach where the pH of physiological fluids are typically around 1-2, through the weakly acidic duodenum to the virtually neutral environment of the small intestine where the pH is in the range of 5-8. There are however cases of non-acidic stomach conditions due to either low production of hydrochloric acid caused by the physiology of the patients (this percentage increases form about 2-10% in young patients to about 10 to 40% in elderly patients) or by coadministration of antacids such as basic agents, H2-blockers or proton pump inhibitors. In those cases dissolution of even immediate release formulations (IRE) may be incomplete in the stomach and absorption might be incomplete or at least delayed.
Within the meaning of the present invention, supersaturation occurs if the active ingredient remains in dissolved status at concentrations far above its saturation solubility in the same aqueous system. […]

solubility: 10 µg/mL (≈ 25.6 µM)
SMILES: O=c1[nH]c2ccccc2n1CCN1CCN(c2cccc(C(F)(F)F)c2)CC1 [Flibanserin, 1,3-dihydro-1-[2-[4-[3-(trifluoromethyl)phenyl]-1-piperazinyl]ethyl]-2H-benzimidazole-2-one]
